Key:
physchem [1] = conditions: octanol/water, pH 7.4
physchem [2] = conditions: buffer

Row | Structure (SMILES) | logD (physchem [1]) | solubility (physchem [2])
1 | O=C(OCc1cc2c(cc1Cl)OCO2)N1CCC(n2c(O)nc3ccccc32)CC1 | 4.2 | < 10 µM
2 | O=C(OC1CCc2ccccc21)N1CCC2(CC1)C(=O)NCN2c1ccccc1 (stereo not drawn) | > 4 | < 10 µM
3 | O=C(OCc1cccc(Oc2ccccc2)c1)N1CCC2(CC1)C(=O)NCN2c1ccccc1 | > 4 | < 10 µM
4 | O=C(NCCCn1c(=O)[nH]c2ccccc21)OCc1cc2c(cc1Cl)OCO2 | > 4 | < 10 µM

From ChEMBL document CHEMBL1134447 (J Med Chem, 2001)
